Assay results taken from patent US20260015592A1, “NEDDYLATION-ACTIVATING ENZYME INHIBITORS AS VIRAL SENSITIZERS AND USES THEREOF” (priority 2022, published 2026).

Test system: melanoma B16 tumors overexpressing OVA antigen (B16-OVA)
Conditions: mouse, in vivo

NS(=O)(=O)OC[C@@H]1C[C@H](n2ccc3c(N[C@H]4CCc5ccccc54)ncnc32)C[C@@H]1O [pevonedistat, ((1S,2S,4S)-4-(4-(((S)-2,3-dihydro-1H-inden-1-yl)amino)-7H-pyrrolo[2,3-d]pyrimidin-7-yl)-2-hydroxycyclopentyl) methyl sulfamate]
survival: significantly prolonged survival
